In brackets after ≈: the same amount, converted by molar mass. Bounds are passed on as bounds.

For this data set the following is noted: buffer; pH 7.4; 200.0 µM.
`CC(=O)OCC(=O)Nc1ccc(Br)c(C)c1`: the kinetic solubility was above 42.9 µg/mL.
As for `COc1cccc(-c2cc(C(=O)NC3CCCCC3)no2)c1`, the figure is below 0.3 µg/mL.
The same measure for `NS(=O)(=O)c1ccc(NNC(=O)c2ccc(Br)o2)c([N+](=O)[O-])c1`: above 60.8 µg/mL; for `CCNCC(=O)Nc1c(C)cccc1C`: 25.2 µg/mL (≈ 122 µM).
As for `CC(C)CC1(C)NC(=O)N(CC(=O)Nc2ccc(F)c(F)c2F)C1=O` (centres undefined), the figure is 48.6 µg/mL (≈ 136 µM); as for `CCCCOc1ccc(C(=O)OCC(=O)N2CCOCC2)cc1`, 29.9 µg/mL (≈ 93 µM); as for `O=C(COC(=O)c1c(F)cccc1F)c1ccc[nH]1`, 39.3 µg/mL (≈ 148 µM).
Compound `CN(C(=O)CSc1nnc(C2CC2)n1C1CC1)C1(C#N)CCCCC1` gave a solubility (kinetic) above 53.9 µg/mL.
The same measure for `N#C/C(=C\c1ccc(O)cc1)C(=O)NCc1ccccc1`: 2.4 µg/mL (≈ 8.62 µM); for `CC(C)(C)c1ccc(C(=O)NC2CCN(Cc3ccccc3)CC2)cc1`: 36.5 µg/mL (≈ 104 µM); for `Cc1ccc(/C=C2/C(=O)ON=C2c2ccccc2)o1`: 38 µg/mL (≈ 150 µM).
As for `C=CCNC(=O)/C(=C\c1ccco1)NC(=O)c1ccco1`, the figure is above 42.9 µg/mL; as for `CCOc1ccc(C(=O)NC2CC(C)(C)NC(C)(C)C2)cc1.Cl`, above 51.1 µg/mL; as for `Cc1cc(C)c(SCCc2ccncc2)c(C)c1`, 3.1 µg/mL (≈ 12 µM).
`CC(OC(=O)/C=C/c1cccc(F)c1)C(=O)NC1CCCCC1C` (centres undefined): the solubility (kinetic) is 1.9 µg/mL (≈ 5.7 µM).
As for `Cc1cc2c(cn1)C(CCC#N)(CCC#N)c1ccccc1-2`, the figure is above 43.1 µg/mL; as for `CNC(=S)N1CCn2cccc2C1c1ccc(F)cc1` (centres undefined), 40.8 µg/mL (≈ 141 µM); as for `COc1cccc(CNC(=O)CCCC(=O)Nc2cccc([N+](=O)[O-])c2)c1`, above 55.7 µg/mL.
The same measure for `C=COCCCNc1ncnc2sc(-c3ccccc3)cc12`: 1.4 µg/mL (≈ 4.5 µM).
On to `N[C@@H](Cc1ccccc1)C(=O)N1C[C@H]2C[C@@H](C1)c1cccc(=O)n1C2`, for which the solubility (kinetic) was 49 µg/mL (≈ 145 µM). Compared with the last compound, the solubility kinetic is about 35-fold higher.
In the case of `COc1ccc(Br)c(C(=O)NC(C)(C)CO)c1`, the kinetic solubility was above 45.3 µg/mL.
For the compound `Cc1ccc2[nH]c3c(c2c1)CCN1C(=O)OC(C)(C)C31C` (centres undefined), the kinetic solubility was 10.4 µg/mL (≈ 36.6 µM).
In turn, `CSc1nc2ccc(Br)cc2[nH]1` showed a kinetic solubility of 35.7 µg/mL (≈ 147 µM). This solubility kinetic is about 3.4-fold higher than that of the compound before.
As for `CC1(C2CC2)NC(=O)N(CC(=O)Nc2ccccc2C#N)C1=O` (centres undefined), the figure is above 46.8 µg/mL; as for `O=C(CSc1nc2ccccc2s1)NC1CCCC1`, 38.6 µg/mL (≈ 132 µM).
The same measure for `Cc1cc(S(=O)(=O)N2CCCCC2)c(C)s1`: above 38.9 µg/mL; for `CCc1cc2c3c(c1)C(C)CC(C)(C)N3C(=O)/C2=C1\SC(=O)NC1=O` (centres undefined): 1.1 µg/mL (≈ 3.09 µM).
The same measure for `CC(=O)Nc1ccc(C(=O)CN2C(=O)CSC2=O)cc1`: above 43.8 µg/mL; for `CC(C)(C)OC(=O)N1CCCN(C(=O)Nc2ccccc2)CC1`: 46.3 µg/mL (≈ 145 µM).
The compound `O=S(=O)(c1ccc2[nH]ccc2c1)N1CCCCCC1` gave a kinetic solubility above 41.8 µg/mL.
As to `Cc1ccc(S(=O)(=O)CC(=O)N2CCOCC2)cc1`, the solubility (kinetic) is above 42.5 µg/mL.
`CCOC(=O)COc1c(Cl)cc(/C=C2\N=C(C)OC2=O)cc1OC` came in with a solubility (kinetic) of 46.5 µg/mL (≈ 131 µM).
`O=C(NCc1ccc(F)cc1)c1cccnc1C(=O)O` came in with a kinetic solubility above 41.1 µg/mL.
On to `O=C1C2C3C=CC(C4CC34)C2C(=O)N1c1cccc2ccccc12` (centres undefined), for which the kinetic solubility stood at 42.7 µg/mL (≈ 135 µM).
The same measure for `CC(C)(C)C(=O)NC(=O)Nc1ccccc1C(F)(F)F`: 3.3 µg/mL (≈ 11.4 µM); for `Br.COc1ccc(C2=CSC3=NCCN23)cc1`: above 47 µg/mL.
As for `Cc1cccn2cc(CCNC(=O)Cc3cccs3)nc12`, the figure is above 44.9 µg/mL; as for `COc1ccccc1C(C)NC(=O)CCOc1cccc(C)c1` (centres undefined), 2.4 µg/mL (≈ 7.66 µM).
The same measure for `CSc1nsc(NC(=O)Nc2ccccc2)n1`: 21.2 µg/mL (≈ 79.6 µM).
In turn, `CC1(C)C(=O)Nc2ccccc2N1C(=O)COc1ccc(C#N)cc1` gave a kinetic solubility of 38.1 µg/mL (≈ 114 µM).
Take `Cc1ccc2c(c1)N(CC(=O)N1CCCC1)C(=O)CO2`: the solubility (kinetic) is above 41.1 µg/mL.
The same measure for `CC(NC(=O)COC(=O)c1ccccc1F)C1CC2CCC1C2` (centres undefined): above 47.9 µg/mL; for `CN1C(=O)C2(OCCCO2)c2ccccc21`: 31.6 µg/mL (≈ 144 µM).
`O=c1c2ccccc2nc(-c2ccccc2Cl)n1-c1cccc(O)c1`: the kinetic solubility is above 52.3 µg/mL.
`CCCC12CN3CC(C)(CN(C1)C3c1ccc([N+](=O)[O-])o1)C2=O` (centres undefined) displayed a kinetic solubility above 47.9 µg/mL.
As for `O=C1CCCC2=C1C(c1ccncc1)n1c(nc3ccccc31)N2` (centres undefined), the figure is 6.7 µg/mL (≈ 21.2 µM); as for `O=C1C2CCCCN2C(=O)N1CCCCN1CCN(c2ccc(F)cc2)CC1` (centres undefined), 43.5 µg/mL (≈ 112 µM).
Turning to `O=C1C2C3C=CC(C3)C2C(=O)N1c1ccc2ccccc2c1` (centres undefined), the kinetic solubility came out at 12.3 µg/mL (≈ 42.5 µM).
Turning to `Cc1nc2ccccn2c1-c1ccnc(=S)[nH]1`, the solubility (kinetic) was 31.8 µg/mL (≈ 131 µM).
As for `COC(=O)c1ccc(CN2CCc3ccccc32)cc1`, the figure is 1 µg/mL (≈ 3.74 µM); as for `COc1cc(OC)cc(C(=O)NCCCn2ccnc2)c1`, above 43.4 µg/mL.
The same measure for `Cc1ccc(OC(C)C(=O)Nc2ccc(Cl)cn2)c([N+](=O)[O-])n1` (centres undefined): 18.7 µg/mL (≈ 55.5 µM); for `OCCCNc1nc(-c2ccc(Cl)cc2)nc2ccccc12`: 1.8 µg/mL (≈ 5.74 µM).
As for `COC(=O)c1cc(OC)c(OC)cc1NC(=S)N1CCOCC1`, the figure is 39.7 µg/mL (≈ 117 µM); as for `COc1ccc(NS(=O)(=O)c2ccc(C(=O)N(C)Cc3ccc(C)o3)cc2)cc1`, 61.1 µg/mL (≈ 147 µM).
The compound `NC(=O)c1ccc(NCCc2ccccc2)c([N+](=O)[O-])c1` displayed a kinetic solubility of 5 µg/mL (≈ 17.5 µM).
The same measure for `N/C(=N\OC(=O)C(c1ccccc1)c1ccccc1)c1ccncc1`: 47.5 µg/mL (≈ 143 µM); for `O=C(Nc1cccc([N+](=O)[O-])c1)N1CCN(c2ccccc2)CC1`: 3.6 µg/mL (≈ 11 µM); for `COc1cc(C)c(S(=O)(=O)NOCc2ccc([N+](=O)[O-])cc2)c(C)c1C`: below 0.4 µg/mL.
As for `O=C(NCCCn1ccnc1)c1ccccc1Cl`, the figure is above 39.6 µg/mL.
As for `O=S(=O)(Nc1ccc(F)cc1)N1CCOCC1`, the figure is above 39 µg/mL; as for `CCOc1ccc(NC(=S)NC23CC4CC(CC(C4)C2)C3)cc1`, below 0.4 µg/mL.
The compound `O=C(COC(=O)c1ccncc1)Nc1ccc2c(c1)OCO2` came in with a kinetic solubility above 45 µg/mL.
As for `COc1cccc(CC2(CO)CCN(Cc3cn(C)nc3C)CC2)c1`, the kinetic solubility was above 51.5 µg/mL.
The compound `COc1ccccc1CCC(=O)OCC(=O)NCc1ccc(OC)c(OC)c1` gave a solubility (kinetic) above 58.1 µg/mL.
The same measure for `CCN(C(=O)c1ccc(Br)cc1)c1ccccc1`: 32.4 µg/mL (≈ 107 µM).
For the compound `COc1ccc(CCNC(=O)C(=O)N2CCCC2)cc1OC`, the solubility (kinetic) is 39.7 µg/mL (≈ 130 µM). The solubility kinetic values of the last two compounds are within 1.5-fold of each other.
As for `CC1CCCC(C)N1C(=O)Cn1cnc2cc([N+](=O)[O-])ccc2c1=O` (centres undefined), the figure is above 51.7 µg/mL; as for `Cn1cc(-c2ccccc2C(=O)O)c(=O)c2cc(Cl)ccc21`, above 47.1 µg/mL.
Turning to `Cc1nc2ncnn2c(C)c1Cc1cccc(C(F)(F)F)c1`, the solubility (kinetic) is above 45.9 µg/mL.
The same measure for `O=C(O)c1cccc(S(=O)(=O)Nc2ccc(N3CCCCC3)cc2)c1`: above 54.1 µg/mL; for `C=Cc1ccc(C(=O)NC2CCCN(Cc3ccccc3F)C2)cc1` (centres undefined): below 0.4 µg/mL; for `Cc1ccc(NC(=O)C(c2ccccc2)c2ccccc2)c(O)c1`: 2.1 µg/mL (≈ 6.62 µM).
As for `Cc1ccc(CN(C)Cc2cc(=O)oc3cc(C)c(Cl)cc23)cc1`, the figure is below 0.7 µg/mL; as for `O=C(CCc1ccccc1)NCc1ccc2c(c1)OCO2`, above 42.5 µg/mL; as for `O=C(O)CCN=Cc1c(O)c2ccccc2oc1=O`, above 39.2 µg/mL.
The compound `O=C1Nc2ccc(F)cc2C12OCCO2` returned a kinetic solubility of 31.3 µg/mL (≈ 150 µM).
The same measure for `COc1ccc(C(=O)OCC(=O)c2ccc[nH]2)cc1`: 20.4 µg/mL (≈ 78.7 µM).
Turning to `O=C(CC(=O)c1ccccc1)Nc1cc([N+](=O)[O-])ccc1Cl`, the solubility (kinetic) was 0.6 µg/mL (≈ 1.88 µM). This solubility kinetic lies about 34-fold lower than the previous one.
The same measure for `CCN1C(=O)/C(=C\c2ccncc2)SC1=S`: 6.2 µg/mL (≈ 24.8 µM); for `CCn1c(NCCCO)nc2c(c1=O)C(C)(CC)Cc1ccccc1-2` (centres undefined): 47 µg/mL (≈ 138 µM).
The same measure for `COc1cc(C(=O)NC(=S)N2CCCCCC2)cc(OC)c1OC`: 15.8 µg/mL (≈ 44.8 µM); for `COC(=O)c1sccc1NC(=O)Nc1ccc(C)cc1C`: 6.6 µg/mL (≈ 21.7 µM).
On to `O=C(c1ccc2nc[nH]c2c1)N1CCc2ccccc2C1`, for which the solubility (kinetic) is above 41.6 µg/mL.
As for `CCn1c(=O)c2c(nc3n2CCCN3c2cccc(C)c2)n(C)c1=O`, the figure is 48.3 µg/mL (≈ 142 µM); as for `NC(=O)C1CC12c1ccccc1-c1ccccc12` (centres undefined), 22 µg/mL (≈ 93.5 µM); as for `CCOc1ccccc1NC(=O)NCc1cccnc1`, above 40.7 µg/mL.
For the compound `Cc1cc(C(=O)Nc2ccc(F)cc2C)cs1`, the solubility (kinetic) was found to be 24.4 µg/mL (≈ 97.9 µM).
For the compound `Fc1ccc(CNc2ncnc3cc(Cl)ccc23)cc1`, the solubility (kinetic) came out at 3.5 µg/mL (≈ 12.2 µM). This solubility kinetic is about 7-fold lower than that of the compound before.
The same measure for `O=C(COc1cccc(Cl)c1)NCc1ccccc1`: above 41.4 µg/mL; for `COc1ccccc1OCCNC(=O)C(c1ccccc1)c1ccccc1`: 2.2 µg/mL (≈ 6.09 µM); for `CCOC(=O)c1ccc(S(=O)(=O)N2CCN(C/C=C/c3ccccc3)CC2)cc1`: 2.8 µg/mL (≈ 6.75 µM).
The same measure for `O=C(CSCc1ccccc1Cl)Nc1ccc(C(=O)O)cc1`: above 50.4 µg/mL; for `COc1cc(C(=O)CSc2nccn2C)cc(OC)c1OC`: above 48.4 µg/mL.
As for `O=C(NC1CCCN(CCc2ccccc2)C1)c1c[nH]c2ccccc12` (centres undefined), the figure is 49.3 µg/mL (≈ 142 µM); as for `CN(c1ccccc1)c1nc(N)c([N+](=O)[O-])c(Nc2ccccc2F)n1`, below 0.1 µg/mL.
With `Cc1ccc(C(=O)O/N=C(\N)c2ccccn2)cc1Cl`, the kinetic solubility was below 0.2 µg/mL.
As for `O=C(OCC(=O)c1ccc[nH]1)c1cncc(Br)c1`, the figure is 24.2 µg/mL (≈ 78.3 µM); as for `Cc1noc2ncnc(Oc3cc(Cl)ccc3Cl)c12`, below 0.2 µg/mL.
The same measure for `Cc1ccc(CNC(=O)C2CCC(=O)N2C(C)C)cc1` (centres undefined): above 41.2 µg/mL; for `O=C(Nc1ccc(Cl)c(Cl)c1)NC1CCS(=O)(=O)C1` (centres undefined): 43.9 µg/mL (≈ 136 µM).
Take `Fc1ccc(C2CCCN2Cc2nc(CC3CC3)no2)cc1` (centres undefined): the solubility (kinetic) amounted to 28.6 µg/mL (≈ 94.9 µM). Against the preceding compound, the solubility kinetic is about 1.5-fold lower.
The same measure for `Cc1occc1C(=O)Nc1ccc(S(N)(=O)=O)cc1`: above 42 µg/mL.
As for `N#CC1=C(N)OC2=C(C(=O)CCC2)C1c1ccc2c(c1)OCO2` (centres undefined), the figure is 16.5 µg/mL (≈ 53.2 µM).

Broadly, the kinetic solubility is solubility judged after dilution from a stock solution rather than from solid.

The values are drawn from PubChem BioAssay AID1996.
